Source: paper PMC10718521, “Complexity of αvβ6-integrin targeting RGD peptide trimers: emergence of non-specific binding by synergistic interaction” (RSC Medicinal Chemistry, 2023)
Where a SMILES comes first, the peptide text is derived from it. [ ]: non-standard residue; d: D form. The star is where a group is joined. NMeK = CN[C@@H](CCCCN)C(=O)O; Pent4ynoyl = C#CCCC(=O)*

Key:
[1] = biological target: α5β1-integrin (Homo sapiens, UniProt P05556+P08648); assay: ELISA on immobilized integrins, α5β1; format: binding; settings: read-out: IC50 (95% confidence interval) α5β1
α5β1-integrin, sequence (P08648 42-995 limits assumed): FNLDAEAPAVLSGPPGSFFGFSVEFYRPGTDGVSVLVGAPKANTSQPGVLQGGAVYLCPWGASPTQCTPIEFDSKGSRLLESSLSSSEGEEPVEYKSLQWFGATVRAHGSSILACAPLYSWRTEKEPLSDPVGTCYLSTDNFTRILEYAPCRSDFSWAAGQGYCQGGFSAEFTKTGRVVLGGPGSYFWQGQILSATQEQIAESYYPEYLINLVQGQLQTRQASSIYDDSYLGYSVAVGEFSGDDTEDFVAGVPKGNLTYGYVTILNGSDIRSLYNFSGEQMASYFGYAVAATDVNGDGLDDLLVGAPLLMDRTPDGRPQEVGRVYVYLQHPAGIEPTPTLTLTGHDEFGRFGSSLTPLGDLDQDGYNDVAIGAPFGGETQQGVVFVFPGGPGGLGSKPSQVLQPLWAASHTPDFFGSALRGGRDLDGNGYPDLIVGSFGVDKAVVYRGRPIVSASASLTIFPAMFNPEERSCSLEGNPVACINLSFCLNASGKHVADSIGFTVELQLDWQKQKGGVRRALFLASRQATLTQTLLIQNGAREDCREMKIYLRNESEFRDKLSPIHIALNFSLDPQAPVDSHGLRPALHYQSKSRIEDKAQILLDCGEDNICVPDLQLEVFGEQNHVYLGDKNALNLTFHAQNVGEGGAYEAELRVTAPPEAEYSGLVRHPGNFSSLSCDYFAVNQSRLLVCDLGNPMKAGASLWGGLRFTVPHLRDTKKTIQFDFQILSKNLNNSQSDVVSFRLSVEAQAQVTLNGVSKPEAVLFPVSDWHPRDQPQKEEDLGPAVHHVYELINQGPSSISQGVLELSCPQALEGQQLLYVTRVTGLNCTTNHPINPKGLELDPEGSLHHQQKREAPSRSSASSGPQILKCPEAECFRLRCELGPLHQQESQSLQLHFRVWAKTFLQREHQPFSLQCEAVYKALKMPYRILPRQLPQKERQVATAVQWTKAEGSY
α5β1-integrin, sequence (P05556 21-728 limits assumed): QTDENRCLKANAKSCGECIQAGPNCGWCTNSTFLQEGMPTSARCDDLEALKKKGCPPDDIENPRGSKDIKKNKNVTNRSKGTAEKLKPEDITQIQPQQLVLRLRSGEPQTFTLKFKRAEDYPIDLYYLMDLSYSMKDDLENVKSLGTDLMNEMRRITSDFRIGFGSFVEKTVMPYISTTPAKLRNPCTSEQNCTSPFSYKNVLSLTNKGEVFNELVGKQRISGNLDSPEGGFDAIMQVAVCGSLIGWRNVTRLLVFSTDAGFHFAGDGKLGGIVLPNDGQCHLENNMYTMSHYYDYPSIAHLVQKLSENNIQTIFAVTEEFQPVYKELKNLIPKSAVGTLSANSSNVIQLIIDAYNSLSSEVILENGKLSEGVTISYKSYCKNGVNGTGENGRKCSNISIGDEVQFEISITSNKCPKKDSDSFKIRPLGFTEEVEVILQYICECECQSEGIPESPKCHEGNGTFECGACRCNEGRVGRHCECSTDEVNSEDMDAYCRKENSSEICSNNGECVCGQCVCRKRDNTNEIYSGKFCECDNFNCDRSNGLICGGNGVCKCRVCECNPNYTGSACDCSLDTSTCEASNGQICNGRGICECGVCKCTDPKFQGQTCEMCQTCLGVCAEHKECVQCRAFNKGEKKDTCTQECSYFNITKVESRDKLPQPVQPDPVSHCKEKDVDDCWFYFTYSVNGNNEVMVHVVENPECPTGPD
Protocol: (§1) The integrin affinities of the monomers were determined using an established ELISA protocol,[36] and expressed as 50% inhibitory concentrations (IC50, Table 1).
(§2) Unless otherwise noted, the materials and the instrumentation used (analytical and preparative HPLC, ESI-MS, gamma counter, centrifuge), and the experimental procedures (^68Ga radiolabeling and radio-TLC for quality control, determination of log D7.4, cultivation of H2009 human lung adenocarcinoma cells, generation of tumor xenografts in CB17 SCID mice, small-animal PET, and biodistribution) were described before.[19] All animal experiments have been carried out according to applicable law and institutional guidelines of Technical University of Munich, and were approved by the responsible local authority (Regierung von Oberbayern). The H2009 cells were regularly authenticated and tested for mycoplasma contamination. The affinities of the pentynoic amide functionalized peptides were determined employing a well-established ELISA protocol on immobilized integrins.[36] TRAP-triazide,[38]FF (previously termed AvB6),[32] and YY (also referred to as Tyr2-alkyne)[33] were synthesized as described previously. […]

[2] = biological target: αvβ3-integrin (Homo sapiens, UniProt P05106+P06756); assay: ELISA on immobilized integrins, αvβ3; format: binding; settings: read-out: IC50 (95% confidence interval) αvβ3
Protocol: as §1, §2

[3] = biological target: αvβ8-integrin (Homo sapiens, UniProt P06756+P26012); assay: ELISA on immobilized integrins, αvβ8; format: binding; settings: read-out: IC50 (95% confidence interval) αvβ8
αvβ8-integrin, sequence (P06756 31-992 limits assumed): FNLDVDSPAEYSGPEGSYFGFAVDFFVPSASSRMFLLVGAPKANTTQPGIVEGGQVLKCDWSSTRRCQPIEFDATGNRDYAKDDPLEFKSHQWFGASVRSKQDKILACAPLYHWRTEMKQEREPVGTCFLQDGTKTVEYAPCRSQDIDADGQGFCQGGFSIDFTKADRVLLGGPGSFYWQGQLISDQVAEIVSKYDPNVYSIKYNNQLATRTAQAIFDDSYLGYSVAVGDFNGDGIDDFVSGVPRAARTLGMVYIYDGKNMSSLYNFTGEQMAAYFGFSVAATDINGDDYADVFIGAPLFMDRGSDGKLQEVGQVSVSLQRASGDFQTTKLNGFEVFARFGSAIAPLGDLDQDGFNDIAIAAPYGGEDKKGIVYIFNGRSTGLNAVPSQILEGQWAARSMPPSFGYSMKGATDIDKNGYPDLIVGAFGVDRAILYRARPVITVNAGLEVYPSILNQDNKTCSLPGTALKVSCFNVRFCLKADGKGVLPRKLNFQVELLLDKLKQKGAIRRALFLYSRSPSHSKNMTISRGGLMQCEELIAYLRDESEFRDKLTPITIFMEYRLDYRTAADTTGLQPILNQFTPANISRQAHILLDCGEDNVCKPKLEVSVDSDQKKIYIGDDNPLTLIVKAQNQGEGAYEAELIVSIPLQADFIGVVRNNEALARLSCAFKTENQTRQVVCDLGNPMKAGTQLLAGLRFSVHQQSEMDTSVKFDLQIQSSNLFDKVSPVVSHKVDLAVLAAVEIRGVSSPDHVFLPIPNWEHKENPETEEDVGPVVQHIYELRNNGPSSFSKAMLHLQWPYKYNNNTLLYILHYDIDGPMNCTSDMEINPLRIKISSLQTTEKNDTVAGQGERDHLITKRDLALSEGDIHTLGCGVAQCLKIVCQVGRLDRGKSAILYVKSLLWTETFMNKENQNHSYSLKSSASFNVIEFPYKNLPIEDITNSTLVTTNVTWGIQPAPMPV
αvβ8-integrin, sequence (P26012 43-684 limits assumed): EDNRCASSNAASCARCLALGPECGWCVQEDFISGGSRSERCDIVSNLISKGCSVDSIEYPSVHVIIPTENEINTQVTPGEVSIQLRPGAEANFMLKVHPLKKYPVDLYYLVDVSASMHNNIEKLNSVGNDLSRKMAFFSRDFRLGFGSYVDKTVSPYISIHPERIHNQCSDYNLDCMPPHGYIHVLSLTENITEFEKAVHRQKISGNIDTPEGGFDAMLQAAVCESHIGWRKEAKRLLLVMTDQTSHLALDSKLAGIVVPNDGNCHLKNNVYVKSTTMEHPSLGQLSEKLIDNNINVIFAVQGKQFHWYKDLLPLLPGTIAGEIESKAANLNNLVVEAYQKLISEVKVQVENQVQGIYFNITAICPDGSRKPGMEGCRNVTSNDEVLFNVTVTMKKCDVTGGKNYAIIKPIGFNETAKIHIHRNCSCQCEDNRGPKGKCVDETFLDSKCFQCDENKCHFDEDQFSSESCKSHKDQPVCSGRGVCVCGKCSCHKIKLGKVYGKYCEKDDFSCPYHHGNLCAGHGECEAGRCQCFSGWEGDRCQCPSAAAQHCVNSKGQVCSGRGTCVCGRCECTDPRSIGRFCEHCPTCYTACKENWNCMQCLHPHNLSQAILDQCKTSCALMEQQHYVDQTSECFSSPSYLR
Protocol: as §1, §2

[4] = biological target: αvβ6-integrin (Homo sapiens, UniProt P06756+P18564); assay: ELISA on immobilized integrins, αvβ6; format: binding; settings: for IC50: ELISA, read-out: IC50 (95% confidence interval) αvβ6; for αvβ6-selectivity over α5β1 / αvβ6-selectivity over αvβ3 / αvβ6-selectivity over αvβ8: IC50-based
αvβ6-integrin, sequence (P06756 31-992 limits assumed): as the sequence (P06756 31-992 limits assumed) above
αvβ6-integrin, sequence (P18564 22-707 limits assumed): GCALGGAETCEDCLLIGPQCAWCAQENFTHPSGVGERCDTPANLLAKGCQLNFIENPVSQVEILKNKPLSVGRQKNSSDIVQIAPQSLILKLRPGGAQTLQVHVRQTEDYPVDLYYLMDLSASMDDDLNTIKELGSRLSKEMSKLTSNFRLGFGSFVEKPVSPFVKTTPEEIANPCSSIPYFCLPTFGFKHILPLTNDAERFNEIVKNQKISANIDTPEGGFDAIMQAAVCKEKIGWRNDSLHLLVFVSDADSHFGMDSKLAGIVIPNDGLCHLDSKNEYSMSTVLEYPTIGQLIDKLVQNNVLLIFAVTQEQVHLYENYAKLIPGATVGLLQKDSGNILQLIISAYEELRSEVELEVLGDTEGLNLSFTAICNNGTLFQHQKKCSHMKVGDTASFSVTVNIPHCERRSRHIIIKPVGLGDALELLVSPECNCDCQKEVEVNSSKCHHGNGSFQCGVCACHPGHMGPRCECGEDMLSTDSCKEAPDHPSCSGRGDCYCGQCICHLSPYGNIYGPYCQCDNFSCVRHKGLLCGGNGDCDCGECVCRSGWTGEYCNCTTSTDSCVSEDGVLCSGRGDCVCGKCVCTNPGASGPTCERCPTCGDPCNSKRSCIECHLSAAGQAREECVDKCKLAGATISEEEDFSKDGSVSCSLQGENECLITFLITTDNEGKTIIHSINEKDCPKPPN
Protocol: as §1
Unless otherwise noted, the materials and the instrumentation used (analytical and preparative HPLC, ESI-MS, gamma counter, centrifuge), and the experimental procedures (^68Ga radiolabeling and radio-TLC for quality control, determination of log D7.4, cultivation of H2009 human lung adenocarcinoma cells, generation of tumor xenografts in CB17 SCID mice, small-animal PET, and biodistribution) were described before.[19] All animal experiments have been carried out according to applicable law and institutional guidelines of Technical University of Munich, and were approved by the responsible local authority (Regierung von Oberbayern). The H2009 cells were regularly authenticated and tested for mycoplasma contamination. The affinities of the pentynoic amide functionalized peptides were determined employing a well-established ELISA protocol on immobilized integrins.[36] TRAP-triazide,[38]FF (previously termed AvB6),[32] and YY (also referred to as Tyr2-alkyne)[33] were synthesized as described previously. RP-HPLC for assessment of compound polarity was done on a 150 × 4.6 mm ReproSil-Pur 120 C18-AQ 5 μm column, with a flow of 0.75 mL min^−1 and a gradient of 10–50% MeCN in water, both containing 0.1% trifluoroacetic acid, within 15 min. The required ^natGa-complexes of the peptide trimers were synthesized by reaction with equimolar amounts of aq. GaCl3 as described.[19]

[5] = tested on: H2009 bearing SCID mice; settings: mouse, in vivo
Protocol: Fig. 3 Positron emission tomography (PET) of severe combined immunodeficient (SCID) mice bearing subcutaneous H2009 (human lung adenocarcinoma) xenografts on the right shoulder. Dynamic scans for determination of biokinetics (a and b) were recorded in list mode and reconstructed in multiple frames with increasing time spans. Static images (c and d) were recorded over 20 min, 75 min after tracer administration, and reconstructed as single frames using the OSEM3D algorithm. […]
Unless otherwise noted, the materials and the instrumentation used (analytical and preparative HPLC, ESI-MS, gamma counter, centrifuge), and the experimental procedures (^68Ga radiolabeling and radio-TLC for quality control, determination of log D7.4, cultivation of H2009 human lung adenocarcinoma cells, generation of tumor xenografts in CB17 SCID mice, small-animal PET, and biodistribution) were described before.[19] […] The affinities of the pentynoic amide functionalized peptides were determined employing a well-established ELISA protocol on immobilized integrins.[36] […]

Question: `C#CCCC(=O)NCCCC[C@H]1C(=O)N[C@@H](Cc2ccccc2)C(=O)N[C@@H](CCCNC(=N)N)C(=O)NCC(=O)N[C@@H](CC(=O)O)C(=O)N[C@@H](CC(C)C)C(=O)N[C@@H](C)C(=O)N[C@@H](Cc2ccc(O)cc2)C(=O)N2CCC[C@@H]2C(=O)N1C` [FY] (cyclo(FRGDLAY[dP][NMeK](Pent4ynoyl))) was tested. Which IC50 [1] did it give?
Answer: Its IC50 is 0.177 µM.

Question: What about the IC50 [2] of the same compound?
Answer: The IC50 was 0.732 µM.

Question: What about the IC50 [3] of the same compound?
Answer: Its IC50 is 0.037 µM.

Question: What about the IC50 [4] of the same compound?
Answer: The IC50 was 0.0028 µM.

Question: What about the “αvβ6-selectivity over α5β1” value [4] of the same compound?
Answer: Its value is 63.

Question: What about the “αvβ6-selectivity over αvβ3” value [4] of the same compound?
Answer: The value was 261.

Question: What about the “αvβ6-selectivity over αvβ8” value [4] of the same compound?
Answer: Its value is 13.2.

Question: Which “Kinetic data Blood” value [5] does the source give for `CC(C)C[C@@H]1NC(=O)[C@H](CC(=O)O)NC(=O)CNC(=O)[C@H](CCCNC(=N)N)NC(=O)[C@H](Cc2ccc(O)cc2)NC(=O)[C@H](CCCCNC(=O)CCc2cn(CCCNC(=O)CCP(=O)(O)CN3CCN(CP(=O)(O)CCC(=O)NCCCn4cc(CCC(=O)NCCCC[C@H]5C(=O)N[C@@H](Cc6ccc(O)cc6)C(=O)N[C@@H](CCCNC(=N)N)C(=O)NCC(=O)N[C@@H](CC(=O)O)C(=O)N[C@@H](CC(C)C)C(=O)N[C@@H](C)C(=O)N[C@@H](Cc6ccc(O)cc6)C(=O)N6CCC[C@@H]6C(=O)N5C)nn4)CCN(CP(=O)(O)CCC(=O)NCCCn4cc(CCC(=O)NCCCC[C@H]5C(=O)N[C@@H](Cc6ccc(O)cc6)C(=O)N[C@@H](CCCNC(=N)N)C(=O)NCC(=O)N[C@@H](CC(=O)O)C(=O)N[C@@H](CC(C)C)C(=O)N[C@@H](C)C(=O)N[C@@H](Cc6ccc(O)cc6)C(=O)N6CCC[C@@H]6C(=O)N5C)nn4)CC3)nn2)N(C)C(=O)[C@H]2CCCN2C(=O)[C@H](Cc2ccc(O)cc2)NC(=O)[C@H](C)NC1=O` [Y6] here?
Answer: The value was 13.14 ± 1.99.

Question: `C#CCCC(=O)NCCCC[C@H]1C(=O)N[C@@H](Cc2ccc(O)cc2)C(=O)N[C@@H](CCCNC(=N)N)C(=O)NCC(=O)N[C@@H](CC(=O)O)C(=O)N[C@@H](CC(C)C)C(=O)N[C@@H](C)C(=O)N[C@@H](Cc2ccccc2)C(=O)N2CCC[C@@H]2C(=O)N1C` [YF] (cyclo(YRGDLAF[dP][NMeK](Pent4ynoyl))) was tested. Which IC50 [1] did it give?
Answer: The IC50 was 0.114 µM.

Question: What about the IC50 [2] of the same compound?
Answer: Its IC50 is 0.63 µM.

Question: And the IC50 [3]?
Answer: Its IC50 is 0.023 µM.

Question: And the IC50 [4]?
Answer: Its IC50 is 0.0033 µM.

Question: And the “αvβ6-selectivity over α5β1” value [4]?
Answer: Its value is 35.

Question: What about the “αvβ6-selectivity over αvβ3” value [4] of the same compound?
Answer: The value was 190.

Question: And the “αvβ6-selectivity over αvβ8” value [4]?
Answer: The value was 6.9.
